From publication PMC13185115, “Photovermellogens: Minimalistic Pyridinium-Based Acylhydrazones with Photoswitchable Basicity for Operation in Aqueous Media” (The Journal of Organic Chemistry, 2026)

Tests used:
Type in all cases: physicochemical
[1] = pKa determination of E-P a-dH+ by UV-Vis titration; conditions: acidity constant of the cationic E form, water, 20 mM phosphate buffer, 298 K, triplicate
Text: (§1) With the photovermellogens synthesized and fully characterized, their acid–base properties were next investigated by UV–vis spectroscopy to determine whether the pH-responsiveness characteristic of parent vermellogens was retained. Indeed, P a–dH·Cl reproduced the archetypical absorption changes of vermellogens (Figures c and S130–S137, SI1). , In essence, the characteristic intense π–π* absorption bands of the cations undergo a considerable bathochromic shift upon deprotonation (Table ), as also confirmed by our quantum chemical calculations (Figure S2, S2), causing a notable color change from yellow to red. This pronounced shift allowed the estimation of pK a values for E-P a–dH^+ via UV–vis absorption titrations, which, as for other vermellogens, fall within the biologically relevant pH range (Figure c, Table and Figures S130–S137, SI1). Changes in the protonation state were also easily monitored by ^1H NMR spectroscopy, with the gain in electronic density translating in a substantial shielding of resonances of the corresponding conjugate bases E/Z-P a–d (Figure a). As already observed for E-P a–dH^+, the deprotonated species were also thermally stable in the absence of light.
4. Determination of pK a values for E-P a-dH+ by UV-Vis spectroscopy.
All the experiments were recorded on a Jasco V-650 spectrometer. […] Considering the previously reported behaviour of vermellogens,5 UV-Vis spectra were initially recorded in the 4-12 pH range, to qualitatively determine in each case the presence or absence of characteristic absorption bands for the acidic-basic forms of the compounds. From the qualitative data, UV-Vis titrations were recorded in the appropriate pH range for each […]
Figure S132. UV-Vis spectra of P bH·Cl at pH 5 (black) and pH 12 (red) at 20 µM. b) Linear relationship at pH 5 between absorbance at 378 nm and concentration of P bH·Cl (ε = 42265 ± 838 L·mol -1·cm-1). c) Linear relationship at pH 12 between absorbance at 456 nm and concentration of P bH·Cl (ε = 42143 ± 1044 L·mol -1·cm-1). […]
Figure S134. UV-Vis spectra of P cH·Cl at pH 6 (black) and pH 12 (red) at 14 µM. b) Linear relationship at pH 6 between absorbance at 350 nm and concentration of P cH·Cl (ε = 49266 ± 1780 L·mol-1·cm-1). c) Linear relationship at pH 12 between absorbance at 433 nm and concentration of P cH·Cl (ε = 46382 ± 1667 L·mol -1·cm-1). […]
Figure S136. UV-Vis spectra of P dH·Cl at pH 6 (red) and pH 13 (black) at 11 µM. b) Linear relationship at pH 6 between absorbance at 411 nm and concentration of P dH·Cl (ε = 65691 ± 2966 L·mol-1·cm-1). c) Linear relationship at pH 13 between absorbance at 500 nm and concentration of P dH·Cl (ε = 69154 ± 3100 L·mol -1·cm-1). […]

[2] = UV-vis absorption spectra in buffered water (λmax, molar absorption coefficient); conditions: for λmax (Z-P) / ε (Z-P): Z conjugate base; for λmax (Z-P) / λmax (E-P) / λmax (E-PH^+) / λmax (Z-PH^+): maximum of the longest-wavelength absorption band; for λmax (Z-P) / ε (Z-P) / λmax (E-P) / ε (E-P) / λmax (E-PH^+) / λmax (Z-PH^+) / ε (E-PH^+) / ε (Z-PH^+): water; for ε (Z-P) / ε (E-P): molar absorption coefficient; for ε (Z-P) / ε (E-P) / ε (E-PH^+) / ε (Z-PH^+): error ± 5%; for λmax (E-P) / ε (E-P): conjugate base; for ε (E-PH^+) / ε (Z-PH^+): molar absorption coefficient at λmax; for ε of the acidic form from absorbance vs concentration: P bH·Cl pH 5, 378 nm, P cH·Cl pH 6, 350 nm, P dH·Cl pH 6, 411 nm; for ε of the basic form from absorbance vs concentration: P bH·Cl pH 12, 456 nm, P cH·Cl pH 12, 433 nm, P dH·Cl pH 13, 500 nm
Text: as §1
(§2) Having confirmed the photochemical behavior of the protonated forms, we next explored their light-responsiveness in the deprotonated state. […] To probe whether Z-P a–c could nonetheless be generated indirectly, we explored a consecutive photoisomerization–deprotonation sequence. Thus, E-P a–cH^+ was first irradiated at 254 nm and pH 6 to enrich the Z population, followed by immediate adjustment of the solution to pH 13. Under these conditions, transient spectroscopic features were observed, consistent with the kinetic trapping of the metastable Z-P a–c species. […] These spectroscopic observations enabled the estimation of virtual pK a values for the Z-enriched solutions (Table and Figures S163–168, SI1), which confirmed the reduced acidity of the NH group in the Z-isomers, presumably arising from intramolecular hydrogen-bond formation.
Figure S132. UV-Vis spectra of P bH·Cl at pH 5 (black) and pH 12 (red) at 20 µM. b) Linear relationship at pH 5 between absorbance at 378 nm and concentration of P bH·Cl (ε = 42265 ± 838 L·mol -1·cm-1). c) Linear relationship at pH 12 between absorbance at 456 nm and concentration of P bH·Cl (ε = 42143 ± 1044 L·mol -1·cm-1).
Figure S133. UV-Vis spectra for the titration of P bH·Cl (20 μM in phosphate buffer solutions in the 4.1-10.6 pH range). b) Absorption of P bH+ at λ = 378 nm plotted against pH. c) Linear fitting […]
Figure S134. UV-Vis spectra of P cH·Cl at pH 6 (black) and pH 12 (red) at 14 µM. b) Linear relationship at pH 6 between absorbance at 350 nm and concentration of P cH·Cl (ε = 49266 ± 1780 L·mol-1·cm-1). c) Linear relationship at pH 12 between absorbance at 433 nm and concentration of P cH·Cl (ε = 46382 ± 1667 L·mol -1·cm-1).
Figure S135.UV-Vis spectra for the titration of P cH·Cl, (14 μM in phosphate buffer solutions in the 5.1-11.7 pH range). b) Absorption of P cH+ at λ = 351 nm plotted against pH. c) Linear fitting […]
Figure S136. UV-Vis spectra of P dH·Cl at pH 6 (red) and pH 13 (black) at 11 µM. b) Linear relationship at pH 6 between absorbance at 411 nm and concentration of P dH·Cl (ε = 65691 ± 2966 L·mol-1·cm-1). c) Linear relationship at pH 13 between absorbance at 500 nm and concentration of P dH·Cl (ε = 69154 ± 3100 L·mol -1·cm-1).
Figure S137. UV-Vis spectra for the titration of P dH·Cl (11 μM in phosphate buffer solutions in the 5.1-11.7 pH range). b) Absorption of P dH+ at λ = 410 nm plotted against pH. c) Linear fitting

[3] = pKa determination for the photostationary state (Z-enriched) by UV-Vis spectroscopy; conditions: apparent acidity constant of the cationic Z form as present in the photostationary state (88–97% Z) after 254 nm irradiation; water
Text: as §2
6. Determination of pK a values for the PSS by UV-Vis spectroscopy.
The concentration of P a-cH·Cl was kept constant at appropriate values in the 10-20 µM range, and that of the phosphate buffer at 20 mM. The absorption measurements of the corresponding air-equilibrated phosphate buffered aqueous solutions were carried out at room temperature (298 K), in quartz cuvettes with 1 cm optical pathlength. For the kinetic trapping of the deprotonated Z-isomers of P a-cH·Cl, a solution of the corresponding salt in phosphate buffered solution at a conveniently acidic pH/pD was irradiated at 254 nm until reaching the PSS. Then, the pH of the solution was in each case adjusted to the required final value, by addition of 40 mM stock solutions of phosphate buffer of the required composition. The reported measurements were done as fast as possible to minimize thermal back-isomerization.

Row | pK a (E-PH^+) [1] | λmax (Z-P) [2] [nm] | ε (Z-P) [2] | λmax (E-P) [2] [nm] | ε (E-P) [2] | λmax (E-PH^+) [2] [nm] | λmax (Z-PH^+) [2] [nm] | ε (E-PH^+) [2] | ε (Z-PH^+) [2] | pK a (PSD) [3] | ε of the acidic form from absorbance vs concentration [2] [L/mol/cm] | ε of the basic form from absorbance vs concentration [2] [L/mol/cm] | SMILES
1 | 8.8 ± 0.2 | 420 | 18,000 M^–1·cm^–1 | 429 | 39,000 M^–1·cm^–1 | 342 | 352 | 41,000 M^–1·cm^–1 | 43,000 M^–1·cm^–1 | 10.4 ± 0.2 | – | – | C[n+]1ccc(NN=CC(=O)c2ccccc2)cc1 [P aH^+]
2 | 11.2 ± 0.1 | – | – | 500 | 69,000 M^–1·cm^–1 | 411 | – | 66,000 M^–1·cm^–1 | – | – | 65691 ± 2966 | 69154 ± 3100 | C[n+]1ccc(-c2ccc(NN=CC(=O)c3ccccc3)cc2)cc1 [P dH^+]
3 | 7.8 ± 0.1 | 420 | 15,000 M^–1·cm^–1 | 432 | 46,000 M^–1·cm^–1 | 349 | 359 | 49,000 M^–1·cm^–1 | 43,000 M^–1·cm^–1 | 9.9 ± 0.1 | 49266 ± 1780 | 46382 ± 1667 | O=C(C=NNc1cc[n+](-c2ccccc2)cc1)c1ccccc1 [P cH^+]
4 | 7.2 ± 0.1 | 445 | 13,000 M^–1·cm^–1 | 456 | 42,000 M^–1·cm^–1 | 378 | 384 | 42,000 M^–1·cm^–1 | 36000 M^–1·cm^–1 | 8.8 ± 0.2 | 42265 ± 838 | 42143 ± 1044 | C[n+]1ccc(NN=CC(=O)c2ccccc2)c2ccccc21 [P bH^+]
